Measured values as given in BindingDB's records for doi:10.1016/j.ejmech.2019.111601 (National Institute of Pharmaceutical Education and Research …, 2019).

Legend:
[1] = target: Prostaglandin G/H synthase 1 (Ovis aries) (UniProt P05979); assay: Inhibition of ovine COX1 assessed as reduction in PGF2alpha incubated for 2 mins using arachidonic acid as substrate by ELISA
[2] = target: Prostaglandin G/H synthase 2 (Homo sapiens) (UniProt P35354); assay: Inhibition of recombinant human COX2 assessed as reduction in PGF2alpha incubated for 2 mins using arachidonic acid as substrate by ELISA
Prostaglandin G/H synthase 2 (Homo sapiens), sequence (P35354 whole entry, looked up): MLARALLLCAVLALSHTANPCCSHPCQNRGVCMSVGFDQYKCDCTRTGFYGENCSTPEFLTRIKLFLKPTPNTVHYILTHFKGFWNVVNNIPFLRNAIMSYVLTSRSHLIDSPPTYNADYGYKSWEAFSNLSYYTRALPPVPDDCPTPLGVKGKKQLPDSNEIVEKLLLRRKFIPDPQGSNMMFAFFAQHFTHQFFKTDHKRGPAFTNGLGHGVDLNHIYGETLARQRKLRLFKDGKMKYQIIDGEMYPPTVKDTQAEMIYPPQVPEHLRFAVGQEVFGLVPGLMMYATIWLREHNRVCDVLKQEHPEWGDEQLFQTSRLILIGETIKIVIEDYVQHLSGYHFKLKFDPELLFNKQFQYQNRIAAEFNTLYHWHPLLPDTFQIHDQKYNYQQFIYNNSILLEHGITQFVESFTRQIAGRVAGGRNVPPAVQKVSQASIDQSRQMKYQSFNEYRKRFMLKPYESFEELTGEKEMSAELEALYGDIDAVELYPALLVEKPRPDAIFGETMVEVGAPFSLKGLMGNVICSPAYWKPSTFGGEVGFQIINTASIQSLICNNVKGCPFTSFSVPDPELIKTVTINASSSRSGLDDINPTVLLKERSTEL

Row | IC50 [1] | IC50 [2] | Structure (SMILES)
1 | 17.8 µM | 0.915 µM | CC(C)(C)OC(=O)N(C1=CC(=O)CCC1)c1ccc(Cl)cc1
2 | 39.9 µM | 0.367 µM | CC(=O)N(C1=CC(=O)CCC1)c1ccc(Cl)cc1
3 | 38 µM | 0.513 µM | O=C1C=C(Nc2ccc(Cl)cc2)CCC1
